{"source": "patent US9487596B2", "about": "“Compound isolated from quamoclit, and composition for preventing or treating diabetes containing the compound as an active ingredient” (NANOBIOTECH CO., LTD., priority 2011, dated 2016)", "key": {"VEGF protein": {"system": "VEGF protein", "assay": "VEGF protein expression in ARPE 19 cells induced with 30 mM glucose (VEGF ELISA)", "assay_type": "cell-based, human", "conditions": "0.5 μg/ml, 72 hours, FIG. 5", "experimental": "In order to confirm inhibition activity of VEGF of the novel compound isolated from the Quamoclit angulata prepared in Example 1 above, ARPE 19 cell line which is human retinal pigment epithelium cell line was treated with the novel compound and expression of the VEGF protein inducting diabetic complications such as diabetic retinopathy, and the like was confirmed.\n10% fetal bovine serum (FBS) was added to DMEM; F12 medium and ARPE 19 cell line (ATCC, USA) was cultured therein. In order to induce expression of the VEGF protein from ARPE 19 cell line, the cells were smeared on 60Φ plate at a concentration of 1×10^5 cell/plate, 10% FBS serum-free was added to DMEM low glucose medium, followed by culturing for 24 hours, the culture fluid was changed into a culture fluid containing 30 mM glucose in the DMEM low glucose medium, and the novel compound KRIBB-BH-P was added thereto so that a final concentration thereof was 0.5 μg/ml, followed by culturing for 72 hours in order to confirm production of VEGF protein. […]\nThe culture fluid of ARPE 19 cell cultured by the above-described method was obtained and an amount of the secreted VEGF was measured using VEGF ELISA kit (R&D, UK)."}, "Min 6 cell line": {"system": "Min 6 cell line", "assay": "Insulin secretion in Min 6 pancreatic β cell line (insulin ELISA)", "assay_type": "cell-based, mouse", "conditions": "Min 6 cells, 25 mM glucose, 0.5 ng/ml, 2 hours, FIG. 6", "experimental": "An insulin secretion acceleration activity of the novel compound KRIBB-BH-P isolated from Quamoclit angulata was confirmed in Min 6 cell line which is a mouse pancreatic β cell tumor.\n15% FBS was added to HDMEM medium and Min 6(ATCC, USA) was cultured therein. In order to induce insulin expression from Min 6 cell line, the cells were smeared on a 96 well plate at a concentration of 1×10^4 cell/plate, 15% FBS serum-free was added to DMEM high glucose medium, followed by culturing for 72 hours, washing with PBS buffer solution, and then culturing in HBSS buffer solution for 2 hours, the culture fluid was changed into HBSS buffer solution having 25 mM glucose added thereto, and the novel compound KRIBB-BH-P was added thereto so that a final concentration thereof was 0.5 ng/ml, followed by culturing for 2 hours in order to confirm whether or not the insulin expression was promoted. Here, an amount of insulin expression in cell in which insulin expression was not induced by treatment with 5.5 mM glucose was set as a reference point which is a control group, and a positive control group was prepared by adding amino-guanidine of 1 μM, acarbose of 1 μM, glimepiride of 1 mM. […] The culture fluid of Min 6 cell cultured by the above-described method was obtained and an amount of the secreted insulin was measured using Insulin ELISA kit (R&D, UK)."}, "lens": {"system": "lens", "assay": "Lens culture experiment, xylose-induced lens opacity", "conditions": "mouse lens, 20 mM xylose, compared to positive control quercetin, FIG. 7", "experimental": "In the case of diabetic, a cataract is developed at an early stage, becomes rapidly worse and eyesight is rapidly deteriorated. Diabetes promotes opaque crystalline lens. Accordingly, diabetic cataract inhibition efficiency was examined by a lens culture experiment.\nEyes of a mouse was extracted and put into an iodine solution to be disinfected and then only the lens was extracted. The extracted eyes were put into M199 medium and cultured in a cell incubator. 20 mM xylose was added to the medium to induce lens opacity and the induced lens opacity was measured using CCD camera."}, "C57BL/Ks DB/DB mouse": {"system": "C57BL/Ks DB/DB mouse", "assay": "Blood glucose in diabetic mice", "assay_type": "in vivo", "conditions": "oral, each of 0.1 mg/kg, 1 mg/kg and 10 mg/kg, 12 weeks, FIG. 8", "experimental": "Normal mice and diabetic mice were treated with the Quamoclit angulata-derived novel compound and change in diabetic indexes including blood glucose, glycated hemoglobin, and urinary protein was confirmed.\n6-week-old mice (Male C57BL/6J mouse, 20 g, Central Lab. Animal Inc., Seoul) and 6-week-old diabetic mice (Male C57BL/Ks DB/DB mouse, 20 g, Central Lab. Animal Inc., Seoul) were purchased and adopted under predetermined temperature (25° C.) and humidity (50%) for 1 week and used in an experiment.\n(§1) A normal mouse control group, a diabetic mouse control group, a diabetic mouse group treated with drugs (glimepiride and acarbose), and a diabetic mouse group treated with Quamoclit angulata-derived novel compound were prepared, wherein each group had five mice, and each group treated with the combination administration of the Quamoclit angulata-derived novel compound was treated by oral administration at each concentration of 0.1 mg/kg, 1 mg/kg and 10 mg/kg and raised for 12 weeks. A change in blood glucose in mice of each group was measured every 2 weeks and urine was collected every 6 weeks to measure a urinary protein concentration, and mice was raised for 12 weeks and blood thereof was collected to measure glycated hemoglobin concentration."}, "C57BL/6J mouse": {"system": "C57BL/6J mouse", "assay": "Oral glucose tolerance test in high-fat diet mice", "assay_type": "in vivo", "conditions": "oral dosing 1, 2, 4, 8, 16, 24 hours before glucose 2 g/kg, result for the 24 hours group, FIG. 9", "experimental": "In order to conduct an oral glucose tolerance test, a 5-week-old mouse (Male C57BL/6J, 19 g, Koatech, Pyeongtaek-si, Gyeonggi-do, Korea) was purchased and adopted under predetermined temperature (25° C.) and humidity (50%) for 1 week and used in an experiment. A general diet group having a general feed as a food and a high-fat diet group having a high-fat feed as a feed were prepared, wherein each group had five mice, and raised for 2 weeks. At the time of two weeks after feeding with high-fat diet, the experimental mice were fasting for 16 hours, and the fasting blood glucose was measured, and then, the sample was orally administered at 1, 2, 4, 8, 16, and 24 hours before measuring the blood glucose, followed by oral administration of glucose 2 g/kg (body weight) and blood glucose thereof was measured every 30 minutes."}, "diabetic mouse [1]": {"system": "diabetic mouse", "assay": "Glycated hemoglobin (HbAlc) in diabetic mice (ELISA)", "assay_type": "in vivo", "conditions": "oral 10 mg/kg, compared to the normal mouse control group (so in the source), FIG. 10", "experimental": "as §1\nIn order to decrease complications developed in patients receiving diabetes treatment, it is important to maintain blood glucose at an appropriate level. Since blood glucose measured at one time point may be changed by various factors, the most widely used test with a purpose of identifying a long-term change in regulation of blood glucose is glycated hemoglobin (HbAlc). […] Since the glycated hemoglobin reflects an average blood glucose value for 2 to 4 months, it is useful for identify a degree of regulation of blood glucose in a long term. […]"}, "diabetic model mouse": {"system": "diabetic model mouse", "assay": "Creatinine in blood and urine of diabetic mice (ELISA)", "assay_type": "in vivo", "conditions": "oral, 12 weeks, FIG. 11", "description": "Diabetic patients are common to have both of kidney and heart complication. Diabetes may damage kidney which filters and excretes our body's waste. Through creatinine test, a concentration of creatinine in a blood may be measured and a function of kidney may be evaluated creatinine, which is a product obtained by dehydrating creatine produced after protein is used in muscle, is present in a blood with an extremely small amount. In the case in which a function of the kidney is deteriorated, creatinine may not be excreted. Urine and blood from diabetic model mouse of each group treated by oral administration for 12 weeks were collected, and creatinine was measured using ELISA kit (R&D, USA)."}, "diabetic mouse [2]": {"system": "diabetic mouse", "assay": "Liver toxicity test: alanine transaminase in blood of diabetic mice", "assay_type": "in vivo", "conditions": "oral 0.1-10 mg/kg, 12 weeks, FIG. 12", "experimental": "A 6-week-old mouse and a 6-week-old diabetic mouse which are the same as Example 5 above were adapted under predetermined temperature (25° C.) and humidity (50%) for 1 week and used in a liver toxicity test.\nA normal mouse control group, a diabetic mouse control group, and each diabetic mouse group treated with Quamoclit angulata-derived novel compound by oral administration at each concentration of 0.1 mg/kg, 1 mg/kg and 10 mg/kg were prepared, wherein each group had five mice, and raised for 12 week. After raising the mice for 12 weeks, blood thereof was collected and a concentration of alanine transaminase was measured.\nThe alanine transaminase, which is a metabolic enzyme of amino acid, is used in a representative test for diagnosis and result observation.\nIn order to confirm effects of the Quamoclit angulata-derived novel compound on liver, a normal mouse control group, a diabetic mouse control group and each group treated with Quamoclit angulata-derived novel compound by oral administration at each concentration of 0.1 mg/kg, 1 mg/kg and 10 mg/kg were raised for 12 weeks and blood thereof were collected and a change in alanine transaminase measured using ELISA kit (Cusabio biotech, Japan)."}, "diabetic mouse [3]": {"system": "diabetic mouse", "assay": "Liver function: bilirubin in blood of diabetic mice (ELISA)", "assay_type": "in vivo", "conditions": "blood after 12 weeks, FIG. 13", "experimental": "In order to confirm whether or not liver function was normal in the group treated with Quamoclit angulata-derived novel compound, bilirubin value was measured using ELISA kit (Cusabio biotech, Japan) using blood collected in Example above. […] Therefore, it may be appreciated that the composition of the present invention is safe composition not causing abnormal liver function."}, "diabetic mouse [4]": {"system": "diabetic mouse", "assay": "Insulin resistance (HOMA-IR) and β-cell functionality (HOMA-beta) in diabetic mice", "assay_type": "in vivo", "conditions": "FIG. 14", "experimental": "Insulin and blood glucose of the diabetic mouse group raised under conditions of Example 7 above were measured by the fasting blood test or glucose tolerance test and insulin sensitivity index thereof was calculated.\nInsulin resistance was evaluated using the insulin sensitivity index which is homeostasis assessment (HOMA)-IR and β-cell Functionality was evaluated by HOMA-beta.\nHOMA-IR=(Fasting insulin (μIU/mL)×Fasting glucose ([…]))/22.5 HOMA-beta=20×Fasting insulin (U/mL)/Fasting glucose (mmol/L)−3.5"}, "adiponectin": {"system": "adiponectin", "assay": "Adiponectin concentration in blood of diabetic mice (ELISA)", "assay_type": "in vivo, mouse", "conditions": "FIG. 15", "description": "It has consistently proven that adiponectin is secreted from fat cells and abundantly present in blood, is decreased in an obesity patient or type 2 diabetic. In addition, low hypoadiponectinemia is on the rise as a new risk factor of artherosclerotic disease, and a concentration of adiponectin in diabetic patients, in particular, patients accompanying macrovascular complications is decreased. That is, adiponectin has an anti-obesity action, an anti-diabetic action, anti-atherogenic action and an inhibition action of active oxygen generation. A concentration of adiponectin in the blood of the diabetic mouse group raised under conditions of Example 7 was measured using ELISA kit (R&D, USA)."}, "glucagon": {"system": "glucagon", "assay": "Plasma glucagon concentration in diabetic mice", "assay_type": "in vivo, mouse", "description": "In type 2 diabetic patients, blood glucose is increased, insulin secretion by glucose intake is delayed, and glucagon is increased. It is generally known that decrease in a ratio of insulin to plasma glucagon is associated with deterioration of diabetes. Therefore, a concentration of glucagon of the diabetic mouse group raised under conditions of Example 7 above was confirmed."}, "DPP-IV": {"target": "T1, DPP-IV (Mus musculus, UniProt P28843)", "T1 construct": "from tissue", "T1 sequence (P28843 whole entry)": "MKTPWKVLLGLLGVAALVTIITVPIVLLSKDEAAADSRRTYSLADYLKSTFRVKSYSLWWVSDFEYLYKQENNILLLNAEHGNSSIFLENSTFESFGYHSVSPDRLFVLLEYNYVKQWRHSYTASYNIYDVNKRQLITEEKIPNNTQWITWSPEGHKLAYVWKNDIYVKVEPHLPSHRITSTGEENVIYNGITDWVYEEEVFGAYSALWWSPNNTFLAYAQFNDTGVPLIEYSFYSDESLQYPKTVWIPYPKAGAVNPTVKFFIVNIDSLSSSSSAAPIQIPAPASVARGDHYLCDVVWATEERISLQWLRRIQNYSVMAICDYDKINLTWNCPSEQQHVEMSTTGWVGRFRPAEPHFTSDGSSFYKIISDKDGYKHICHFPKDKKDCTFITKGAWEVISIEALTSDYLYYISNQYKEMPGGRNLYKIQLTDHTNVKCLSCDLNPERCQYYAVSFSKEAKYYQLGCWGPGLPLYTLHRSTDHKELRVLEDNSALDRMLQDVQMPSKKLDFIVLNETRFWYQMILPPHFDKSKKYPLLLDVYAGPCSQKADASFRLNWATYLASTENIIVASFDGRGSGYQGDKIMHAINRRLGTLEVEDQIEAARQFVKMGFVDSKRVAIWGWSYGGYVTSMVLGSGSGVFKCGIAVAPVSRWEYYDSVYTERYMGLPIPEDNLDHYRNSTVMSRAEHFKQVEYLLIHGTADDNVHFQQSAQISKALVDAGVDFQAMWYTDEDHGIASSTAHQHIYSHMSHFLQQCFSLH", "assay": "DPP-IV activity in diabetic mice", "assay_type": "in vivo", "conditions": "FIG. 17", "description": "Both of GIP and GLP-1 are rapidly decomposed by dipeptidyl peptidase (DPP)-4 which is a series of serine protease. DPP-4 inhibition efficacy of the diabetic mouse group raised under conditions of Example 7 above was confirmed based on the above description."}, "alpha-glucosidase": {"system": "alpha-glucosidase", "assay": "Alpha-glucosidase activity in diabetic mice", "assay_type": "in vivo, mouse", "conditions": "FIG. 18", "experimental": "Activity of alpha-glucosidase of the diabetic mouse group raised under conditions of Example 7 above was measured based on the above-description."}, "TNF-α": {"system": "TNF-α", "assay": "TNF-α concentration in diabetic mice", "assay_type": "in vivo, mouse", "conditions": "FIG. 19", "experimental": "TNF-α concentration of the diabetic mouse group raised under conditions of Example 7 above was measured based on the above-description."}, "diabetic mouse [5]": {"system": "diabetic mouse", "assay": "Anti-cataract effect: eye lens turbidity in diabetic mice", "assay_type": "in vivo", "conditions": "FIG. 20", "experimental": "Eye lens was isolated from eyeball extracted from the diabetic mouse group raised under conditions of Example 7 above and moved to a well plate and then a photograph thereof was taken by LAS 3000 image analysis system. Turbidity of the eye lens was measured by analyzing the photograph using LAS 300 image analysis program."}}}
{"smiles": "CCCCCC(CCCC(O)CC(=O)O)OC1OC(COC2OC(C)C(OC3CC(O)C(O)C(C)O3)CC2O)C(O)C(O)C1OC1CC(O)C(OC2CC(O)C(OC3CC(O)C(OC)C(C)O3)C(C)O2)C(C)O1", "note": "(stereo not shown) [KRIBB-BH-P]", "values": [{"measurement": "VEGF expression", "setting": "VEGF protein", "value": "decreased"}, {"measurement": "insulin expression", "setting": "Min 6 cell line", "value": "increased"}, {"measurement": "lens opacity", "setting": "lens", "value": "more inhibited"}, {"measurement": "blood glucose", "setting": "C57BL/Ks DB/DB mouse", "value": "remarkably decreased"}, {"measurement": "efficacy in oral glucose tolerance test (blood glucose)", "setting": "C57BL/6J mouse", "value": "highest efficacy"}, {"measurement": "glycated hemoglobin value", "setting": "diabetic mouse [1]", "value": "remarkably decreased"}, {"measurement": "concentration of creatinine in the blood", "setting": "diabetic model mouse", "value": "decreased"}, {"measurement": "concentration of creatinine in the urine", "setting": "diabetic model mouse", "value": "increased"}, {"measurement": "liver toxicity", "setting": "diabetic mouse [2]", "value": "no liver toxicity"}, {"measurement": "bilirubin value", "setting": "diabetic mouse [3]", "value": "included in a normal range"}, {"measurement": "insulin resistance (HOMA-IR)", "setting": "diabetic mouse [4]", "value": "remarkably excellent result"}, {"measurement": "β-cell functionality (HOMA-beta)", "setting": "diabetic mouse [4]", "value": "remarkably excellent result"}, {"measurement": "expression of adiponectin", "setting": "adiponectin", "value": "increased"}, {"measurement": "concentration ratio of insulin to glucagon", "setting": "glucagon; compared to the diabetic mouse control group", "value": "remarkably increased"}, {"measurement": "concentration of plasma glucagon", "setting": "glucagon; lower than that of the group treated with the drugs, FIG. 16", "value": "remarkably decreased"}, {"measurement": "activity of DPP IV", "setting": "DPP-IV", "value": "inhibited"}, {"measurement": "activity of alpha-glucosidase", "setting": "alpha-glucosidase", "value": "inhibited"}, {"measurement": "TNF-α concentration", "setting": "TNF-α", "value": "decreased"}, {"measurement": "turbidity of the eye lens", "setting": "diabetic mouse [5]", "value": "decreased"}]}
